Common to all, as to type: biochemical
One assay concerns the target T1, PIP4K2B (Homo sapiens, UniProt P78356).
T1 construct: made in house; host or cells: E. coli
T1 sequence (P78356 1-416): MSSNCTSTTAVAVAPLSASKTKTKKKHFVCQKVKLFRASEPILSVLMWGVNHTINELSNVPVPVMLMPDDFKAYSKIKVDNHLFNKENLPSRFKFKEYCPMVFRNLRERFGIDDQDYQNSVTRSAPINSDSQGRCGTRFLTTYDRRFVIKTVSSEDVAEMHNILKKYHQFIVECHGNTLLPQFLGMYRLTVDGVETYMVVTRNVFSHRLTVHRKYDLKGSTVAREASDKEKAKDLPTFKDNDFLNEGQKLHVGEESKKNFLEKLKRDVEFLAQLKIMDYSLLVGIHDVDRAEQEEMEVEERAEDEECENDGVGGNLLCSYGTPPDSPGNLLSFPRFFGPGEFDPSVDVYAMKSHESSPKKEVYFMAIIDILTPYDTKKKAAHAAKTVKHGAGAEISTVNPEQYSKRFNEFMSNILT
Nature of the assay: Trans-FI P kinase assay PIP4K2B (Table 4). The conditions noted are these: compounds listed under IC50 bins; read-out: Trans-FI P kinase assays: PIP4K2B IC50. The procedure, abridged:
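Transcreener FI detection (Ex 584/Em 623) of GDP, converted via calibration curve, gives IC50 from residual activity versus log concentration (highest 4.8 μM). Reaction: 80 μM PI5P plus DOPE carrier, 100 μM GTP, 5 nM GST-tagged enzyme, pH 7.3 HEPES with MgCl2 and 5% DMSO, 2 h after 1 h enzyme-compound preincubation at 27° C.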

Assay [1] concerns the target T2, PIP4K2A (Homo sapiens, UniProt P48426).
T2 sequence (P48426 1-406): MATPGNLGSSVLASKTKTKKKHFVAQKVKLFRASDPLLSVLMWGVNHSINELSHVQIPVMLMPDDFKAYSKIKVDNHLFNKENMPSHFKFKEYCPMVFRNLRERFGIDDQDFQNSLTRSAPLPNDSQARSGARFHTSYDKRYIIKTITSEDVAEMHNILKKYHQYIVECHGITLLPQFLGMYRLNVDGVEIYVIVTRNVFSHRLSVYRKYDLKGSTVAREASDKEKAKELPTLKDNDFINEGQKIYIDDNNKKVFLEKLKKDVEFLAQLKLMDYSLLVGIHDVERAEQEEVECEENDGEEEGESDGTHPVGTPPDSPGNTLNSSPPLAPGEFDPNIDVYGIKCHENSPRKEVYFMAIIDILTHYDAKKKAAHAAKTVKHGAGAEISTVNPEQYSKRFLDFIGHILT
Nature of the assay: ADP-glo kinase assay PIP4K 2A (Table 3). Further details: made in house; host or cells: E. coli. The conditions noted are these: compounds listed under IC50 bins. The procedure, abridged:
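ADP-Glo luminescence detected ADP after 1 h RT reaction started by ATP (60 μM solution) on full-length PIP4K2A (4 nM in mix) and PI(5)P diC8 (100 μM in mix), preceded by 15 min enzyme-compound preincubation in MOPS pH 7.2/25 mM MgCl2. Percent inhibition versus DMSO over 10 concentrations fitted for IC50.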
On the technique in general: ADP-Glo turns the ADP formed in a reaction into a luminescent signal.

The target of assay [2] is T2, PIP4K2A. Nature of the assay: Kinase Assay PIP4K2 A (Table 2). Further details: 4 nM PIP4K2A (full length protein, SignalChem); purchased SignalChem. The note with it: compounds listed under IC50 bins. The procedure, abridged: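 ADP-Glo luminescent read-out after 1 h room-temperature kinase reaction, started with 60 μM ATP solution following 15 min compound pre-incubation. Enzyme/substrate mix: 4 nM full-length PIP4K2A plus 100 μM PI(5)P diC8; buffer MOPS pH 7.2 with 25 mM MgCl2 and Tween 20. IC50 from 10-point, 3-fold titrations normalized to DMSO.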

Structures are written as SMILES. Some results are limits rather than exact numbers.

A word on the IC50: it is the midpoint of a concentration-inhibition curve. `CN(C)C(=O)c1ccc(-c2ccc(Nc3cnc4c(c3)OCCO4)nc2)cc1` [Example 50, 4-(6-((2,3-dihydro-[1,4]dioxino[2,3-b]pyridin-7-yl)amino)pyridin-3-yl)-N,N-dimethylbenzamide]: the IC50 was 10 to 100 nM at PIP4K2B, 100 to 1000 nM on PIP4K2A [1] and 10 to 100 nM against PIP4K2A [2].

For `COc1cc(Nc2cnc3c(c2)N2C(=O)CC[C@H]2CO3)ncc1-c1ccc(N2CCCC2=O)c(F)c1` [Example 183, (S)-2-((5-(3-fluoro-4-(2-oxopyrrolidin-1-yl)phenyl)-4-methoxypyridin-2-yl)amino)-6,6a,7,8-tetrahydro-9H-pyrido[2,3-b]pyrrolo[1,2-d][1,4]oxazin-9-one], the IC50 at PIP4K2B was 10 to 100 nM; against PIP4K2A [1], 1 to 10 nM; against PIP4K2A [2], no more than 1 nM.

As to `CN(C)C/C=C/C(=O)NCC(=O)Nc1cccc(CN2CCN(c3cncc(Nc4ccc(-c5ccc(C(=O)N(C)C)cc5)cn4)c3)C2=O)c1` [Example 227, (E)-4-(6-((5-(3-(3-(2-(4-(dimethylamino)but-2-enamido)acetamido)benzyl)-2-oxoimidazolidin-1-yl)pyridin-3-yl)amino)pyridin-3-yl)-N,N-dimethylbenzamide], the IC50 on PIP4K2B was 10 to 100 nM; against PIP4K2A [1], 1 to 10 nM; against PIP4K2A [2], no more than 1 nM.

With `CN1CCN(c2cncc(Nc3ccc(-c4ccc(N5CCCC5=O)cc4)cn3)c2)S1(=O)=O` [Example 174, 1-(4-(6-((5-(5-methyl-1,1-dioxido-1,2,5-thiadiazolidin-2-yl)pyridin-3-yl)amino)pyridin-3-yl)phenyl)pyrrolidin-2-one], the figures for the IC50 at PIP4K2B, on PIP4K2A [1] and against PIP4K2A [2] were 10 to 100 nM, 10 to 100 nM and 1 to 10 nM, respectively.

Regarding `CN(C)C(=O)c1ccc(-c2ccc(Nc3ccc(N4CCOCC4)nc3)nc2)cc1` [Example 60, N,N-dimethyl-4-(6-((6-morpholinopyridin-3-yl)amino)pyridin-3-yl)benzamide], the IC50 on PIP4K2B, at PIP4K2A [1] and on PIP4K2A [2] was greater than 1000 nM throughout.

On to `O=C(c1cccc2ncc(Nc3ccc(-c4ccc(N5CCCC5=O)cc4)cn3)cc12)N1CCCC1` [Example 148, 1-(4-(6-((5-(pyrrolidine-1-carbonyl)quinolin-3-yl)amino)pyridin-3-yl)phenyl)pyrrolidin-2-one], for which the 50% inhibitory concentration (IC50) at PIP4K2B was greater than 1000 nM; against PIP4K2A [1], greater than 1000 nM; against PIP4K2A [2] it was 100 to 1000 nM.

Regarding `O=C1CCCN1c1ccc(-c2ccc(Nc3cnc4c(c3)N3C(=O)CC[C@H]3CO4)nc2)cc1F` [Example 246, (S)-2-((5-(3-fluoro-4-(2-oxopyrrolidin-1-yl)phenyl)pyridin-2-yl)amino)-6,6a,7,8-tetrahydro-9H-pyrido[2,3-b]pyrrolo[1,2-d][1,4]oxazin-9-one], the IC50 on PIP4K2B lay within 10 to 100 nM; at PIP4K2A [1], 1 to 10 nM; on PIP4K2A [2] it was 1 to 10 nM.

With `CN(C)C(=O)c1ccc(-c2ccc(Nc3cncc(NC(=O)c4cccc5[nH]ccc45)c3)nc2)cc1` [Example 143, N-(5-((5-(4-(dimethylcarbamoyl)phenyl)pyridin-2-yl)amino)pyridin-3-yl)-1H-indole-4-carboxamide], the results for the IC50 at PIP4K2B, on PIP4K2A [1] and on PIP4K2A [2] were 10 to 100 nM, 10 to 100 nM and 1 to 10 nM, respectively.

In the case of `CC1(C)C[C@H]2COc3ncc(Nc4ccc(-c5ccc(N6CCCC6=O)c(F)c5)cn4)cc3N2C1=O` [Example 258, (S)-2-((5-(3-fluoro-4-(2-oxopyrrolidin-1-yl)phenyl)pyridin-2-yl)amino)-8,8-dimethyl-6,6a,7,8-tetrahydro-9H-pyrido[2,3-b]pyrrolo[1,2-d][1,4]oxazin-9-one], the IC50 on PIP4K2B lay within 10 to 100 nM; against PIP4K2A [1] it was 1 to 10 nM; at PIP4K2A [2], 1 to 10 nM.

With `CN(C)C(=O)c1ccc(-c2ccc(Nc3cncc(NC(=O)c4ccccn4)c3)nc2)cc1` [Example 128, N-(5-((5-(4-(dimethylcarbamoyl)phenyl)pyridin-2-yl)amino)pyridin-3-yl)picolinamide], the IC50 on PIP4K2B was in the range of 10 to 100 nM; on PIP4K2A [1], 100 to 1000 nM; against PIP4K2A [2] it was 10 to 100 nM.

For the molecule `CN(C)C(=O)c1ccc(-c2ccc(Nc3cncc(NC(=O)CCc4cccc(NC(=O)OC(C)(C)C)c4)c3)nc2)cc1` [Example 101, tert-butyl (3-(3-((5-((5-(4-(dimethylcarbamoyl)phenyl)pyridin-2-yl)amino)pyridin-3-yl)amino)-3-oxopropyl)phenyl)carbamate], the IC50 at PIP4K2B was 10 to 100 nM; on PIP4K2A [1], 100 to 1000 nM; against PIP4K2A [2], 10 to 100 nM.

As for `CN(C)C(=O)c1ccc(-c2ccc(Nc3cncc(NC(=O)c4ccc5c(c4)B(O)OC5)c3)nc2)cc1` [Example 133, N-(5-((5-(4-(dimethylcarbamoyl)phenyl)pyridin-2-yl)amino)pyridin-3-yl)-1-hydroxy-1,3-dihydrobenzo[c][1,2]oxaborole-6-carboxamide], the IC50 at PIP4K2B, at PIP4K2A [1] and on PIP4K2A [2] was 10 to 100 nM throughout.

For `CN(C)C(=O)c1cnc(-c2ccc(Nc3cccnc3)nc2)nc1` [Example 29, N,N-dimethyl-2-(6-(pyridin-3-ylamino)pyridin-3-yl)pyrimidine-5-carboxamide], the IC50 on PIP4K2B, against PIP4K2A [1] and against PIP4K2A [2] was greater than 1000 nM in each case.

For the molecule `CN(C)C(=O)c1ccc(-c2ccc(Nc3cnc4c(c3)N(C(=O)OC(C)(C)C)CCO4)nc2)cc1` [Example 45, tert-butyl 7-((5-(4-(dimethylcarbamoyl)phenyl)pyridin-2-yl)amino)-2,3-dihydro-1H-pyrido[2,3-b][1,4]oxazine-1-carboxylate], the IC50 on PIP4K2B lay in the range of 10 to 100 nM; against PIP4K2A [1], 100 to 1000 nM; on PIP4K2A [2], 10 to 100 nM.

Take `CN(C)C(=O)c1ccc(-c2ccc(Nc3cnc4c(c3)N(C(=O)C(C)(C)CO)CCO4)nc2)cc1` [Example 96, 4-(6-((1-(3-hydroxy-2,2-dimethylpropanoyl)-2,3-dihydro-1H-pyrido[2,3-b][1,4]oxazin-7-yl)amino)pyridin-3-yl)-N,N-dimethylbenzamide]: the IC50 fell in the range of 10 to 100 nM on PIP4K2B, 10 to 100 nM on PIP4K2A [1] and 1 to 10 nM against PIP4K2A [2].

Turning to `CN(C)C(=O)c1ccc(-c2ccc(Nc3ccc(CCN4CCOCC4)nc3)nc2)cc1` [Example 51, N,N-dimethyl-4-(6-((6-(2-morpholinoethyl)pyridin-3-yl)amino)pyridin-3-yl)benzamide], the IC50 at PIP4K2B, against PIP4K2A [1] and against PIP4K2A [2] was greater than 1000 nM each time.

`CN(C)C(=O)c1ccc(-c2ccc(Nc3cnc4c(c3)N3C(=O)CC[C@H]3CO4)nc2)cc1` [Example 242, (S)-N,N-dimethyl-4-(6-((9-oxo-6a,7,8,9-tetrahydro-6H-pyrido[2,3-b]pyrrolo[1,2-d][1,4]oxazin-2-yl)amino)pyridin-3-yl)benzamide]: the IC50 was in the range of 10 to 100 nM on PIP4K2B, 1 to 10 nM at PIP4K2A [1] and 1 to 10 nM against PIP4K2A [2].

For the molecule `CN(C)C(=O)c1ccc(-c2ccc(Nc3cncc(NS(C)(=O)=O)c3)nc2)cc1` [Example 127, N,N-dimethyl-4-(6-((5-(methylsulfonamido)pyridin-3-yl)amino)pyridin-3-yl)benzamide], the IC50 at PIP4K2B, against PIP4K2A [1] and on PIP4K2A [2] was 10 to 100 nM in each case.

Turning to `CN(C)C/C=C/C(=O)NCCOCCOCCC(=O)Nc1cccc(C(=O)Nc2cncc(Nc3ccc(-c4ccc(C(=O)N(C)C)cc4)cn3)c2)c1` [Example 114, (E)-N,N-dimethyl-4-(6-((5-(3-(2-methyl-6-oxo-10,13-dioxa-2,7-diazahexadec-4-en-16-amido)benzamido)pyridin-3-yl)amino)pyridin-3-yl)benzamide], the values for the IC50 on PIP4K2B, against PIP4K2A [1] and on PIP4K2A [2] were 10 to 100 nM, 100 to 1000 nM and 10 to 100 nM, respectively.

Values taken from patent US11667651B2, “Aminopyridine derivatives as phosphatidylinositol phosphate kinase inhibitors” (HiberCell, Inc., priority 2017, dated 2023).
